Test results taken from ChEMBL document CHEMBL3885861, “Open TG-GATES”.

Organism: Rattus norvegicus
Experiment: Open TG-GATES - Regimen: Single
Type: toxicity, organism-based, Sprague-Dawley
Set-up: regimen Single, gender Male, age 6 weeks
Settings: in vivo, po, 1000 mg/kg, route gavage, dose level High; for APTT / Bas / Eos / Fbg / Hb / Ht / Lym / MCH / MCHC / MCV / Mono / Neu / PT / Plat / RBC / Ret / WBC: tissue Blood; for KIDNEY_L / KIDNEY_R / KIDNEY_TOTAL: tissue Kidney; for LIVER: tissue Liver; for A/G / ALP / ALT / AST / BUN / CRE / Ca / Cl / DBIL / GLC / IP / K / LDH / Na / PL / RALB / TBIL / TC / TG / TP / gamma-GTP: tissue Plasma

CCOC(=O)CCC(=O)O[C@H]1[C@H](O[C@@H]2[C@@H](C)[C@H](O[C@H]3C[C@@](C)(OC)[C@@H](O)[C@H](C)O3)[C@@H](C)C(=O)O[C@H](CC)[C@@](C)(O)[C@H](O)[C@@H](C)C(=O)[C@H](C)C[C@@]2(C)O)O[C@H](C)C[C@@H]1N(C)C [ERYTHROMYCIN ETHYLSUCCINATE]
TERMINAL_BW (3 h): 217 g | APTT (3 h): 22.2 s | Bas (3 h): 0% | Eos (3 h): 1% | Fbg (3 h): 305.8 mg/dL | Hb (3 h): 13 g/dL | Ht (3 h): 39.2% | Lym (3 h): 74.6% | MCH (3 h): 20.5 pg | MCHC (3 h): 33.1% | MCV (3 h): 61.8 fL | Mono (3 h): 2.8% | Neu (3 h): 20% | PT (3 h): 15.4 s | Plat (3 h): 131 x10_4/uL | RBC (3 h): 635.4 x10_4/ul | Ret (3 h): 8.2% | WBC (3 h): 77.4 x10_2/uL | KIDNEY_L (3 h): 1 g | KIDNEY_R (3 h): 1 g | KIDNEY_TOTAL (3 h): 1.9 g | LIVER (3 h): 9.6 g | A/G (3 h): 1.2 | ALP (3 h): 1535.2 IU/L | ALT (3 h): 46 IU/L | AST (3 h): 76.6 IU/L | BUN (3 h): 11.8 mg/dL | CRE (3 h): 0.1 mg/dL | Ca (3 h): 10.4 mg/dL | Cl (3 h): 102.4 meq/L | DBIL (3 h): 0.014 mg/dL | GLC (3 h): 181.2 mg/dL | IP (3 h): 9.7 mg/dL | K (3 h): 3.7 meq/L | LDH (3 h): 158.4 IU/L | Na (3 h): 138 meq/L | PL (3 h): 143.8 mg/dL | RALB (3 h): 2.9 g/dL | TBIL (3 h): 0.05 mg/dL | TC (3 h): 74.2 mg/dL | TG (3 h): 40 mg/dL | TP (3 h): 5.4 g/dL | gamma-GTP (3 h): 1 IU/L | TERMINAL_BW (6 h): 219.9 g | APTT (6 h): 23.4 s | Bas (6 h): 0% | Eos (6 h): 1% | Fbg (6 h): 315 mg/dL | Hb (6 h): 13.3 g/dL | Ht (6 h): 40.7% | Lym (6 h): 73.2% | MCH (6 h): 20.6 pg | MCHC (6 h): 32.8% | MCV (6 h): 62.9 fL | Mono (6 h): 3.2% | Neu (6 h): 21% | PT (6 h): 15.7 s | Plat (6 h): 134.9 x10_4/uL | RBC (6 h): 647.6 x10_4/ul | Ret (6 h): 7.9% | WBC (6 h): 93.4 x10_2/uL | KIDNEY_L (6 h): 1 g | KIDNEY_R (6 h): 1.1 g | KIDNEY_TOTAL (6 h): 2.1 g | LIVER (6 h): 9.1 g | A/G (6 h): 1.2 | ALP (6 h): 1632.2 IU/L | ALT (6 h): 45.8 IU/L | AST (6 h): 79.8 IU/L | BUN (6 h): 10.2 mg/dL | CRE (6 h): 0.1 mg/dL | Ca (6 h): 10.6 mg/dL | Cl (6 h): 104 meq/L | DBIL (6 h): 0.012 mg/dL | GLC (6 h): 176.8 mg/dL | IP (6 h): 10 mg/dL | K (6 h): 4 meq/L | LDH (6 h): 180 IU/L | Na (6 h): 138.8 meq/L | PL (6 h): 140.4 mg/dL | RALB (6 h): 2.9 g/dL | TBIL (6 h): 0.046 mg/dL | TC (6 h): 68.4 mg/dL | TG (6 h): 43.4 mg/dL | TP (6 h): 5.4 g/dL | gamma-GTP (6 h): 1.4 IU/L | TERMINAL_BW (9 h): 213.4 g | APTT (9 h): 23.1 s | Bas (9 h): 0% | Eos (9 h): 1% | Fbg (9 h): 304.8 mg/dL | Hb (9 h): 13.5 g/dL | Ht (9 h): 40.8% | Lym (9 h): 76.2% | MCH (9 h): 20.8 pg | MCHC (9 h): 33.1% | MCV (9 h): 62.8 fL | Mono (9 h): 2.6% | Neu (9 h): 19.8% | PT (9 h): 15.4 s | Plat (9 h): 121.3 x10_4/uL | RBC (9 h): 650.4 x10_4/ul | Ret (9 h): 7.2% | WBC (9 h): 67.2 x10_2/uL | KIDNEY_L (9 h): 1 g | KIDNEY_R (9 h): 1 g | KIDNEY_TOTAL (9 h): 2 g | LIVER (9 h): 8.5 g | A/G (9 h): 1.2 | ALP (9 h): 1688.2 IU/L | ALT (9 h): 40.4 IU/L | AST (9 h): 73 IU/L | BUN (9 h): 9 mg/dL | CRE (9 h): 0.1 mg/dL | Ca (9 h): 10.5 mg/dL | Cl (9 h): 105.8 meq/L | DBIL (9 h): 0 mg/dL | GLC (9 h): 173.8 mg/dL | IP (9 h): 9.7 mg/dL | K (9 h): 4.2 meq/L | LDH (9 h): 169.2 IU/L | Na (9 h): 139.2 meq/L | PL (9 h): 144.4 mg/dL | RALB (9 h): 3 g/dL | TBIL (9 h): 0.036 mg/dL | TC (9 h): 69.2 mg/dL | TG (9 h): 54.4 mg/dL | TP (9 h): 5.5 g/dL | gamma-GTP (9 h): 1 IU/L | TERMINAL_BW (24 h): 227.7 g | APTT (24 h): 20.2 s | Bas (24 h): 0% | Eos (24 h): 1% | Fbg (24 h): 337.4 mg/dL | Hb (24 h): 13.9 g/dL | Ht (24 h): 41.8% | Lym (24 h): 85.4% | MCH (24 h): 20.9 pg | MCHC (24 h): 33.2% | MCV (24 h): 62.8 fL | Mono (24 h): 3% | Neu (24 h): 8.8% | PT (24 h): 16.3 s | Plat (24 h): 125.6 x10_4/uL | RBC (24 h): 666 x10_4/ul | Ret (24 h): 7.1% | WBC (24 h): 93.9 x10_2/uL | KIDNEY_L (24 h): 1 g | KIDNEY_R (24 h): 1 g | KIDNEY_TOTAL (24 h): 2 g | LIVER (24 h): 9.4 g | A/G (24 h): 1.2 | ALP (24 h): 1448.8 IU/L | ALT (24 h): 34 IU/L | AST (24 h): 66.4 IU/L | BUN (24 h): 16.8 mg/dL | CRE (24 h): 0.1 mg/dL | Ca (24 h): 10.6 mg/dL | Cl (24 h): 107.6 meq/L | DBIL (24 h): 0 mg/dL | GLC (24 h): 197.8 mg/dL | IP (24 h): 9 mg/dL | K (24 h): 4.3 meq/L | LDH (24 h): 209.6 IU/L | Na (24 h): 142.8 meq/L | PL (24 h): 139.6 mg/dL | RALB (24 h): 3 g/dL | TBIL (24 h): 0.024 mg/dL | TC (24 h): 86.6 mg/dL | TG (24 h): 53.2 mg/dL | TP (24 h): 5.6 g/dL | gamma-GTP (24 h): 1.2 IU/L
